The values below are quoted from earlier work in patent publication EP0496548A1, “Carbacyclin analogs” (PURDUE RESEARCH FOUNDATION, priority 1991, dated 1992).

The conditions of this data set: in vivo.

For `CCCCC[C@H](O)/C=C/[C@@H]1[C@H]2C/C(=C/CCCC(=O)O)C[C@H]2C[C@H]1O` [carbacyclin], for the setting “attributed to enzymatic oxidation”, the serum half-life entry was “comparable to that of prostacyclin”. Take `CCCCC[C@H](O)/C=C/[C@@H]1[C@H]2C/C(=C/CCCC(=O)O)O[C@H]2C[C@H]1O` [prostacyclin, Prostacyclin]: the half-life ('generally') is 2 to 3 min.

The half-life is the time in which the quantity being followed falls by half.
